Assay results from patent US20250388565A1, “ESTROGEN RECEPTOR ALPHA DEGRADERS AND METHODS OF USE THEREOF” (Relay Therapeutics, Inc., priority 2022, published 2025).

molecular target: T1, ERα protein (HiBiT-tagged) in ESR1_HiBiT KI MCF7 cells (Homo sapiens, UniProt P03372); experiment: Nano Glo HiBiT Lytic Degradation Assay; type: cell-based; conditions: 6 hours with compound, 14-point dose response 1:3, bell-shape curve fit, half-maximal effect of first Hill model, read-out: MCF7 ESR1 HiBiT - (DC50)
T1 sequence (P03372 1-595): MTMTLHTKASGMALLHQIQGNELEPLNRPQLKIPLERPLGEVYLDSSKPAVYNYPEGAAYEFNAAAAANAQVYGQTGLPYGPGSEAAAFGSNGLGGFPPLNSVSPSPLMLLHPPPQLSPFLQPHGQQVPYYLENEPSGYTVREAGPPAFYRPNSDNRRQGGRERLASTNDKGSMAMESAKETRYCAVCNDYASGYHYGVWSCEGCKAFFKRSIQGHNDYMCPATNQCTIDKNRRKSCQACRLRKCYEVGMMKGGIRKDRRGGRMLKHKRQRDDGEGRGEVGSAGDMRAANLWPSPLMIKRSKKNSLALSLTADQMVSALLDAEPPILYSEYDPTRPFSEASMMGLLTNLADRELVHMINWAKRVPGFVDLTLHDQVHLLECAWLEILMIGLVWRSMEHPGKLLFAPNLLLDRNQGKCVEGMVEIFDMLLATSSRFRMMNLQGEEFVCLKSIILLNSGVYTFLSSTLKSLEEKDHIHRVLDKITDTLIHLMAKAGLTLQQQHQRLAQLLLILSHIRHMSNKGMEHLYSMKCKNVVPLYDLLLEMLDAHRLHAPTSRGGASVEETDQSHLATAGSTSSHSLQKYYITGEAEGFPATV
Outline: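 ESR1_HiBiT knock-in MCF7 cells were seeded 24 h before treatment, then exposed to compounds for 6 h at 37° C (14-point 1:3 curves, 10 mM top stock, 0.1% DMSO final, duplicates). HiBiT-ERα was read by lytic LgBiT luminescence, background-subtracted and normalized to DMSO. DC50 was taken from the half-maximal point of the first Hill component of a bell-shaped fit.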

| DC50 [nM] | Compound |
| --- | --- |
| 22 | O=C1CCC(N2Cc3cc(C4=CCN(CC5CCN(c6ccc([C@@H]7c8ccc(O)cc8CC[C@@H]7c7ccccc7)cc6)CC5)CC4)ccc3C2=O)C(=O)N1 (stereo partly shown) [II-104] |
| ≥ 10000 | O=C1CCC(N2Cc3cc(C4CCN(CC5CCN(c6ccc([C@@H]7c8ccc(O)cc8CC[C@@H]7c7ccccc7)cc6)CC5)CC4)ccc3C2=O)C(=O)N1 (stereo partly shown) [II-105] |
| 1.05 | O=C1CCC(N2Cc3cc(N4CCN(CC5CCN(c6ccc([C@@H]7c8ccc(O)cc8CC[C@@H]7c7ccc(F)cc7)cc6)CC5)CC4)ccc3C2=O)C(=O)N1 (stereo partly shown) [II-109] |
| 0.88 | O=C1CC[C@@H](N2Cc3cc(N4CCN(CC5CCN(c6ccc([C@@H]7c8ccc(O)cc8CC[C@@H]7c7ccc(F)cc7)cc6)CC5)CC4)ccc3C2=O)C(=O)N1 [II-110] |
